Reference: US7629439B2, “Peptides derived from the protein MMP-2, and the use thereof in antitumoral immunotherapy” (INSERM (Institut National de la Sante et de la Recherche …, priority 2003, dated 2009)

Tested on: T2 cells
Assay: 51Cr release: sensitization of T2 cells to lysis by CTL clone M134.12
Type: cell-based
Conditions: 51Cr-labeled T2 cells, 60 minutes at 37° C. with peptide, effector/target ratio 10/1, 4 hours; compared among four peptides (FIG. 4)
Description: These peptides were used to sensitize T2 cells labeled with ^51Cr. These cells were incubated for 60 minutes at 37° C. with various concentrations of each of the peptides to be tested. CTL M134.12 effector cells were then added at an effector cell/target cell ratio of 10/1. The amount of ^51Cr released into the supernatant is measured 4 hours later.
Along the y-axis, the percentage specific lysis.
Along the x-axis, the concentration of peptide LGLPPDVQRV (●) (SEQ ID NO: 2), GLPPDVQRV (▪) (SEQ ID NO: 1), LPPDVQRV (▴) (SEQ ID NO: 3), or GLPPDVQR(X) (SEQ ID NO: 4) in nM.

Question: With “GLPPDVQRV (listed as Homo sapiens) [peptide derived from region 556-593 of the MMP-2 protein, presented by HLA-A*0201]” as the sequence, how does the “sensitizing T2 cells to lysis by the CTL clone M134.12 (percentage specific lysis)” value read?
Answer: The value was “most effective”.
